Assay results from patent US11168345B2, “Methods of identifying a polypeptide target for degradation by a modulator of CRBN” (THE BROAD INSTITUTE, INC., priority 2015, dated 2021).

Tests used:
[1] = target: T1, Aiolos C2H2 zinc finger 2 (AA146-168) (Homo sapiens, UniProt Q96SW2+Q9UKT9); assay: Aiolos zinc finger 2 (amino acids 146-168) GFP fusion degradation, flow cytometry; assay type: cell-based
T1 construct: attaching zinc finger 2 (amino acids 146-168) to GFP via a flexible linker; expressed in transfected cells; host or cells: HEK293T

RNF166 [2] = details: for degradation of RNF166 in protein reporter vector (normalized EGFP:mCherry ratio): HEK293T cells, lentiviral transduction, 1 μM, cereblon and zinc finger-dependent; for degradation of zinc-finger-containing region of RNF166 fused to GFP: flow cytometry
From the text: (§1) Bars corresponding to treatment groups A-D are consistent amongst all genetic background groups. Bar height is the average of three replicates, error bars represent 95% confidence intervals. […] Light gray (asterisk) amino acids designate positions which are components of the C2H2 zinc finger motif and are found across the C2H2 family of zinc fingers. Medium gray (black bar) amino acids are polymorphic sites in C2H2 zinc fingers.

ZFP91 [3] = details: for degradation of ZFP91 in protein reporter vector (normalized EGFP:mCherry ratio): HEK293T cells, lentiviral transduction, 1 μM, cereblon and zinc finger-dependent; for degradation of zinc-finger-containing region of ZFP91 fused to GFP: flow cytometry
From the text: as §1

ZNF692 [4] = details: for degradation of ZNF692 in protein reporter vector (normalized EGFP:mCherry ratio): HEK293T cells, lentiviral transduction, 1 μM, cereblon and zinc finger-dependent; for degradation of zinc-finger-containing region of ZNF692 fused to GFP: flow cytometry
From the text: as §1

RNF166 [5] = target: T2, RNF166 (Homo sapiens, UniProt Q96A37+Q96SW2); details: MM1S (multiple myeloma) and KG1 (Acute Myeloid Leukemia) cell lines; datasets of Kronke et al. 2014, 2015; cited from earlier work
T2 construct: endogenous in cells; host or cells: MM1S, KG1

ZFP91 [6] = target: T3, ZFP91 (Homo sapiens, UniProt Q96JP5+Q96SW2); details: MM1S (multiple myeloma) and KG1 (Acute Myeloid Leukemia) cell lines; datasets of Kronke et al. 2014, 2015; cited from earlier work
T3 construct: endogenous in cells; host or cells: MM1S, KG1

ZNF692 [7] = target: T4, ZNF692 (Homo sapiens, UniProt Q96SW2+Q9BU19); details: MM1S (multiple myeloma) and KG1 (Acute Myeloid Leukemia) cell lines; datasets of Kronke et al. 2014, 2015; cited from earlier work
T4 construct: endogenous in cells; host or cells: MM1S, KG1
T4 sequence (Q9BU19 whole entry): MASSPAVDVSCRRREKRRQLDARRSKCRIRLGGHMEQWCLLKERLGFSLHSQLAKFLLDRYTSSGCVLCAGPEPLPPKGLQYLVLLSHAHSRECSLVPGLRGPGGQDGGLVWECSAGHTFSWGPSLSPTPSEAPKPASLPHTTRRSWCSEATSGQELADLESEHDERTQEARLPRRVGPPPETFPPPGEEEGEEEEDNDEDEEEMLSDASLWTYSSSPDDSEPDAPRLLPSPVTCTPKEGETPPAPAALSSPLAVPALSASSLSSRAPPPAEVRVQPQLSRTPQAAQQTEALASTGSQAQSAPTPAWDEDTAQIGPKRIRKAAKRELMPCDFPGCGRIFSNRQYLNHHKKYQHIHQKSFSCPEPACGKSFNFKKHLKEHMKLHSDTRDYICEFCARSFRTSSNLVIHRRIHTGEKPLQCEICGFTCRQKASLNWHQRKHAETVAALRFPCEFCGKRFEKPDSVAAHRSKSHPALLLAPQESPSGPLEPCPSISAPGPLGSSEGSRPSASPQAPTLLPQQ
T4 sequence (Q96SW2 whole entry): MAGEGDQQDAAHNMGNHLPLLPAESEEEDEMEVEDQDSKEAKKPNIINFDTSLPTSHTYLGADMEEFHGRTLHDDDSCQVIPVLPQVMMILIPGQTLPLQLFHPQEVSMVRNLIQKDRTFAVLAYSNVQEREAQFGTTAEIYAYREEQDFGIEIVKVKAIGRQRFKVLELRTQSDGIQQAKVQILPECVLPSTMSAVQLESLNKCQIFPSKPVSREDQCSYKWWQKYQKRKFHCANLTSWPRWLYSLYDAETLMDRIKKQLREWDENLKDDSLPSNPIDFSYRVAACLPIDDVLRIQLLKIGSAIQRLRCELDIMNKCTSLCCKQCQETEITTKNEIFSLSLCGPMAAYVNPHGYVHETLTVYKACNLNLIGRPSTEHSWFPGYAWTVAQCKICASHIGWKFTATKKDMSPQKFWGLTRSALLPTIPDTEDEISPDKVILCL
T4 sequence (Q16531 whole entry partner): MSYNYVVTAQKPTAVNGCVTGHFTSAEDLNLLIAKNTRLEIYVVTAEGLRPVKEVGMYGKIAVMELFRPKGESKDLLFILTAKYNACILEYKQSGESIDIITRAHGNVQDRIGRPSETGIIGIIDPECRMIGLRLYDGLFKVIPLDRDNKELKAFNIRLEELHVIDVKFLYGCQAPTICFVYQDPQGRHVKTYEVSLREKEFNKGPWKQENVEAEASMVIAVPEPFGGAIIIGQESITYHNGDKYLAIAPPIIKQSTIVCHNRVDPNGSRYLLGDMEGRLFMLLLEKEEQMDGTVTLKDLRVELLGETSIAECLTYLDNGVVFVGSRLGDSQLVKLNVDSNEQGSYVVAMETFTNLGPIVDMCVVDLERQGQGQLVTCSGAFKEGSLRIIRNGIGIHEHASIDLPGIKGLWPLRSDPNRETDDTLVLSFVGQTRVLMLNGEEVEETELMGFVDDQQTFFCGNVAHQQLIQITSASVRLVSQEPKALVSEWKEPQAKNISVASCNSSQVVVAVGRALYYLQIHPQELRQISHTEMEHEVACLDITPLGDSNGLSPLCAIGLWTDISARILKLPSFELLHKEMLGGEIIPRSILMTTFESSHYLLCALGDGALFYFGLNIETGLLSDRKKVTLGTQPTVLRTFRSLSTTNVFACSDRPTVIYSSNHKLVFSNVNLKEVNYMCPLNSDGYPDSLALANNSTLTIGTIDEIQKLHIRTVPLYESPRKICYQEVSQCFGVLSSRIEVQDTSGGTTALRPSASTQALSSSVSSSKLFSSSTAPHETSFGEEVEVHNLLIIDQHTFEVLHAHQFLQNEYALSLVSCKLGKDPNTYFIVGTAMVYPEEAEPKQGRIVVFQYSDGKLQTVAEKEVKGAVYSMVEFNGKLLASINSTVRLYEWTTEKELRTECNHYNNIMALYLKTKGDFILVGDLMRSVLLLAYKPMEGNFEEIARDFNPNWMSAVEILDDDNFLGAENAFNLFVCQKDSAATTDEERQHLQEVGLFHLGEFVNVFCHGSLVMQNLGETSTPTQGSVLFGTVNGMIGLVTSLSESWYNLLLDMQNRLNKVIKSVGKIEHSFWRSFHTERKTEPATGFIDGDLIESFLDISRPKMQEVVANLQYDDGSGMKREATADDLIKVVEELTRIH

T1 sequence (Q9UKT9 146-168 limits assumed): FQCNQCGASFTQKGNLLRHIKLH
T1 sequence (Q96SW2 whole entry, the tested form may be a part): as the sequence (Q96SW2 whole entry) above
T1 sequence (Q16531 whole entry partner, the tested form may be a part): as the sequence (Q16531 whole entry partner) above
T3 sequence (Q96JP5 2-570 limits assumed): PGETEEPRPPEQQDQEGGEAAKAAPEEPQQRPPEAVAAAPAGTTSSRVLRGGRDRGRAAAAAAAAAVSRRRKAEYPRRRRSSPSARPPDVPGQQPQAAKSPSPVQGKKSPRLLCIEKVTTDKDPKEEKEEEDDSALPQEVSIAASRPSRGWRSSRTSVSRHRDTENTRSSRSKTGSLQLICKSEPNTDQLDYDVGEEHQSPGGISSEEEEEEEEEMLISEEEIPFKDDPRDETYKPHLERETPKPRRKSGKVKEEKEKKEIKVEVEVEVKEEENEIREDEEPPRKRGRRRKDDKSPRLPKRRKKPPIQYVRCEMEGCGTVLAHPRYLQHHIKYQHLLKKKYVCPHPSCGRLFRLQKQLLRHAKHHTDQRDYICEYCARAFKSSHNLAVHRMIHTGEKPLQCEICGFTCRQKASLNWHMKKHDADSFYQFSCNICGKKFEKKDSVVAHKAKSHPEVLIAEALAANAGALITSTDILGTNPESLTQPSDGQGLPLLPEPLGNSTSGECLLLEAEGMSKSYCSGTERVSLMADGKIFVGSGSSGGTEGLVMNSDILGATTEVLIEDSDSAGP
T3 sequence (Q96SW2 whole entry): as the sequence (Q96SW2 whole entry) above
T3 sequence (Q16531 whole entry partner): as the sequence (Q16531 whole entry partner) above
T2 sequence (Q96A37 whole entry): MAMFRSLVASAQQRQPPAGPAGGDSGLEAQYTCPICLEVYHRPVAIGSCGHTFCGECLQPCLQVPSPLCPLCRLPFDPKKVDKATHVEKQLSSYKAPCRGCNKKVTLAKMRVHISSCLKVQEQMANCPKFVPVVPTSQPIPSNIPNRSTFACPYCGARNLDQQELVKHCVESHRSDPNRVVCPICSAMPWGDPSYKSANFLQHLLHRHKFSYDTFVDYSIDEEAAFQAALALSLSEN
T2 sequence (Q96SW2 whole entry): as the sequence (Q96SW2 whole entry) above
T2 sequence (Q16531 whole entry partner): as the sequence (Q16531 whole entry partner) above

Row | Structure (SMILES) | second C2H2 zinc finger in Aiolos (amino acids 146-169) inducing targeting by the drug [1] | degradation of RNF166 in protein reporter vector (normalized EGFP:mCherry ratio) (RNF166 [2]) | degradation of zinc-finger-containing region of RNF166 fused to GFP (RNF166 [2]) | degradation of ZFP91 in protein reporter vector (normalized EGFP:mCherry ratio) (ZFP91 [3]) | degradation of zinc-finger-containing region of ZFP91 fused to GFP (ZFP91 [3]) | degradation of ZNF692 in protein reporter vector (normalized EGFP:mCherry ratio) (ZNF692 [4]) | degradation of zinc-finger-containing region of ZNF692 fused to GFP (ZNF692 [4]) | RNF166 protein abundance in the presence of drug (RNF166 [5]) | ZFP91 protein abundance in the presence of drug (ZFP91 [6]) | ZNF692 protein abundance in the presence of drug (ZNF692 [7])
1 | Nc1cccc2c1C(=O)N(C1CCC(=O)NC1=O)C2=O (centres unmarked) [pomalidomide] | both necessary and sufficient to induce targeting | degraded | degraded with varying efficiencies | degraded | degraded with varying efficiencies | degraded | degraded with varying efficiencies |  |  | 
2 | O=C1CCC(N2C(=O)c3ccccc3C2=O)C(=O)N1 (centres unmarked) [thalidomide] | both necessary and sufficient to induce targeting | degraded | degraded with varying efficiencies | degraded | degraded with varying efficiencies | degraded | degraded with varying efficiencies | significant decrease in abundance | significant decrease in abundance | significant decrease in abundance
